From US6495576B2, “Aminal diones as potassium channel openers” (Abbott Laboratories, priority 2001, dated 2002)
Like-named read-outs stand apart in the source and are kept apart here.

Test system: Landrace pig bladder strips
Assay: Functional potassium channel opening activity in isolated, field-stimulated bladder strips
Settings: for Index: ED50 for P1075 divided by ED50 for test agonist in a given tissue, averaged; for EC50: amount causing 50% of the agent's maximal response, field stimulation 0.05 Hz, 0.5 ms, 20 volts, read-out: ED50 (the source's name); for Efficacy (%P1075) / Emax: maximal efficacy on stimulated twitch, relative to P1075
Protocol: Compound were evaluated for functional potassium channel opening activity using tissue strips obtained from Landrace pig bladders.
Landrace pig bladders were obtained from female Landrace pigs of 9-30 kg. Landrace pig were euthanized with an intraperitoneal injection of pentobarbital solution, Somlethal ®, J. A. Webster Inc. Sterling Mass. The entire bladder was removed and immediately placed into Krebs Ringer bicarbonate solution (composition, mM: NaCl, 120; NaHCO3, 20; dextrose, 11; KCl, 4.7; CaCl2, 2.5; MgSO4, 1.5; KH2PO4, 1.2; K2EDTA, 0.01, equilibrated with 5% CO2/95% O2 pH 7.4 at 37° C.). Propranolol (0.004 mM) was included in all of the assays to block β-adrenoceptors. The trigonal and dome portions were discarded. Strips 3-5 mm wide and 20 mm long were prepared from the remaining tissue cut in a circular fashion. The mucosal layer was removed. One end was fixed to a stationary glass rod and the other to a Grass FT03 transducer at a basal preload of 1.0 gram. Two parallel platinum electrodes were included in the stationary glass rod to provide field stimulation of 0.05 Hz, 0.5 milli-seconds at 20 volts. This low frequency stimulation produced a stable twitch response of 100-500 centigrams. Tissues were allowed to equilibrate for at least 60 minutes and primed with 80 mM KCl. A control concentration response curve (cumulative) was generated for each tissue using the potassium channel opener P1075 as the control agonist. […] After a 60 minute rinsing period, a concentration response curve (cumulative) was generated for the test agonist in the same fashion as that used for control agonist P1075. The maximal efficacy of each compound (expressed as % relative to P1075) is reported. The amount of agent necessary to cause 50% of the agent's maximal response (ED50) was calculated using “ALLFIT” (DeLean et al., Am. J. Physiol., 235, E97 (1980)), hereby incorporated by reference. Agonist potencies were also expressed as an index relative to P1075. The index was calculated by dividing the ED50 for P1075 by the ED50 for the test agonist in a given tissue. Each tissue was used for only one test agonist, and the indices obtained from each tissue were averaged to provide an average index of potency.

Question: What does the source list for CC(C)(C)C(NC(=O)c1cc(F)cc(F)c1)Nc1c(Nc2cccnc2)c(=O)c1=O (single isomer, unassigned; (+)) [Example 49, (+)N-(1-{[3.4-Dioxo-2-(3-pyridinylamino)-1-cyclobuten-1-yl]amino}-2,2-dimethylpropyl)-3,5-difluorobenzamide]?
Answer: Index: 0.071; EC50: 1.2 µM; Efficacy (%P1075): 100 %P1075

Question: Which Index does the source give for CC(C)(C)C(NC(=O)c1cccc(Cl)c1)Nc1c(Nc2cccnc2)c(=O)c1=O (single isomer, unassigned; (+)) [Example 56, (+) 3-Chloro-N-(1-{[3.4-dioxo-2-(3-pyridinylamino)-1-cyclobuten-1-yl]amino}-2,2-dimethylpropyl)benzamide] here?
Answer: 0.028

Question: And the EC50?
Answer: 2.2 µM

Question: What about the “Efficacy (%P1075)” value of the same molecule?
Answer: 94 %P1075

Question: How did the Index turn out when CC(C)(C)C(NC(=O)c1cc(F)cc(F)c1)Nc1c(Nc2cccnc2)c(=O)c1=O (single isomer, unassigned; (-)) [Example 50, (−)N-(1-{[3,4-Dioxo-2-(3-pyridinylamino)-1-cyclobuten-1-yl]amino}-2,2-dimethylpropyl)-3,5-difluorobenzamide] was run?
Answer: 0.14

Question: And the Emax (Sus scrofa)?
Answer: 79%

Question: And the EC50?
Answer: 6.8 µM

Question: Which Index does the source give for CC(C)(C)C(NC(=O)c1cccc(Cl)c1)Nc1c(Nc2cccnc2)c(=O)c1=O (single isomer, unassigned; (-)) [Example 57, (−) 3-Chloro-N-(1-{[3,4-dioxo-2-(3-pyridinylamino)-1-cyclobuten-1-yl]amino}-2,2-dimethylpropyl)benzamide] here?
Answer: 0.015

Question: What about the Emax (Sus scrofa) of the same molecule?
Answer: 81%

Question: And the EC50?
Answer: 4 µM

Question: With CC(C)(C)C(NC(=O)c1ccc(I)cc1)Nc1c(Nc2cccnc2)c(=O)c1=O (stereo not shown) [Example 3, N-(1-{[3,4-Dioxo-2-(3-pyridinylamino)-1-cyclobuten-1-yl]amino}-2,2-dimethylpropyl)-4-iodobenzamide] as the molecule, how does the Index read?
Answer: 0.062

Question: CC(C)(C)C(NC(=O)c1cccc(Cl)c1)Nc1c(Nc2cccnc2)c(=O)c1=O (stereo not shown) [Example 5, 3-chloro-N-(1-{[3,4-Dioxo-2-(3-pyridinylamino)-1-cyclobuten-1-yl]amino}-2,2-dimethylpropyl)benzamide] was tested. Which Index did it give?
Answer: 0.059

Question: How did the Index turn out when Cc1cccc(C(=O)NC(Nc2c(Nc3cccnc3)c(=O)c2=O)C(C)(C)C)c1 (stereo not shown) [Example 6, N-(1-{[3,4-Dioxo-2-(3-pyridinylamino)-1-cyclobuten-1-yl]amino}-2,2-dimethylpropyl)-3-methylbenzamide] was run?
Answer: 0.067

Question: Which Index does the source give for CC(C)(C)C(NC(=O)c1cccc(F)c1)Nc1c(Nc2cccnc2)c(=O)c1=O (stereo not shown) [Example 7, N-(1-{[3,4-Dioxo-2-(3-pyridinylamino)-1-cyclobuten-1-yl]amino}-2,2-dimethylpropyl)-3-fluorobenzamide] here?
Answer: 0.025

Question: CC(C)(C)C(NC(=O)c1cccc(I)c1)Nc1c(Nc2cccnc2)c(=O)c1=O (stereo not shown) [Example 8, N-(1-{[3,4-Dioxo-2-(3-pyridinylamino)-1-cyclobuten-1-yl]amino}-2,2-dimethylpropyl)-3-iodobenzamide] was tested. Which Index did it give?
Answer: 0.047

Question: Which Index does the source give for CC(C)(C)C(NC(=O)c1cc(Cl)cc(Cl)c1)Nc1c(Nc2cccnc2)c(=O)c1=O (stereo not shown) [Example 12, 3,5-Dichloro-N-(1-{[3,4-dioxo-2-(3-pyridinylamino)-1-cyclobuten-1-yl]amino}-2,2-dimethylpropyl)benzamide] here?
Answer: 0.12

Question: How did the Index turn out when COc1cc(OC)cc(C(=O)NC(Nc2c(Nc3cccnc3)c(=O)c2=O)C(C)(C)C)c1 (stereo not shown) [Example 13, N-(1-{[3,4-dioxo-2-(3-pyridinylamino)-1-cyclobuten-1-yl]amino}-2,2-dimethylpropyl)-3,5-dimethoxybenzamide] was run?
Answer: 0.57

Question: How did the Index turn out when CC(C)(C)C(NC(=O)c1cc(F)cc(F)c1)Nc1c(Nc2cccnc2)c(=O)c1=O (stereo not shown) [Example 16, N-(1-{[3,4-Dioxo-2-(3-pyridinylamino)-1-cyclobuten-1-yl]amino}-2,2-dimethylpropyl)-3,5-difluorobenzamide] was run?
Answer: 0.046

Question: With CCC(CC)C(NC(=O)c1ccc(Cl)cc1)Nc1c(Nc2cccnc2)c(=O)c1=O (stereo not shown) [Example 21, 4-Chloro-N-(1-{[3,4-dioxo-2-(3-pyridinylamino)-1-cyclobuten-1-yl]amino}-2-ethylbutyl)benzamide] as the molecule, how does the Index read?
Answer: 0.092

Question: How did the Index turn out when O=C(NC(Nc1c(Nc2cccnc2)c(=O)c1=O)C(F)(F)C(F)(F)F)c1cccc(Cl)c1 (stereo not shown) [Example 26, 3-Chloro-N-(1-{[3,4-dioxo-2-(3-pyridinylamino)-1-cyclobuten-1-yl]amino}−2,2,3,3,3-pentafluoropropyl)benzamide] was run?
Answer: 0.64

Question: How did the Index turn out when CC(C)(C)C(NC(=O)c1ccc(Cl)cc1)Nc1c(Nc2cccnc2Cl)c(=O)c1=O (stereo not shown) [Example 29, 4-Chloro-N-[1-({2-[(2-chloro-3-pyridinyl)amino]-3,4-dioxo-1-cyclobuten-1-yl}amino)-2,2-dimethylpropyl]benzamide] was run?
Answer: 0.028

Question: With CC(C)(Cc1ccccc1)C(NC(=O)c1ccc(Cl)cc1)Nc1c(Nc2cccnc2Cl)c(=O)c1=O (stereo not shown) [Example 31, 4-Chloro-N-[1-({2-[(2-chloro-3-pyridinyl)amino]-3,4-dioxo-1-cyclobuten-1-yl}amino)-2,2-dimethyl-32-phenylpropyl]benzamide] as the molecule, how does the Index read?
Answer: 0.039

Question: What about the EC50 of the same molecule?
Answer: 2.9 µM

Question: What about the “Efficacy (%P1075)” value of the same molecule?
Answer: 76 %P1075

Question: For Cc1cccc(C(=O)NC(Nc2c(Nc3cccnc3Cl)c(=O)c2=O)C(C)(C)C)c1 (stereo not shown) [Example 32, N-[1-({2-[(2-Chloro-3-pyridinyl)amino]-3,4-dioxo-1-cyclobuten-1-yl}amino)-2,2-dimethylpropyl]-3-methylbenzamide], which Index is on record?
Answer: 0.076

Question: For CC(C)(C)C(NC(=O)CCc1ccccc1)Nc1c(Nc2cccnc2)c(=O)c1=O (stereo not shown) [Example 36, N-(1-{[3,4-Dioxo-2-(3-pyridinylamino)-1-cyclobuten-1-yl]amino}-2,2-dimethylpropyl)-3-phenylpropionamide], which Index is on record?
Answer: 0.063

Question: What does the source list for CC(Cl)(Cl)C(NC(=O)c1cc(F)cc(F)c1)Nc1c(Nc2cccnc2)c(=O)c1=O (stereo not shown) [Example 51, N-(2,2-Dichloro-1-{[3,4dioxo-2-(3-pyridinylamino)-1-cyclobuten-1-yl]amino}propyl)-3,5-difluorobenzamide]?
Answer: Index: 0.080; EC50 (Sus scrofa): 1.4 µM; Emax (Sus scrofa): 96%

Question: For CC(C)(Cc1ccccc1)C(NC(=O)c1cc(F)cc(F)c1)Nc1c(Nc2cccnc2)c(=O)c1=O (stereo not shown) [Example 55, N-(1-{[3,4-Dioxo-2-(3-pyridinylamino)-1-cyclobuten-1-yl]amino}-2,2-dimethyl-3-phenylpropyl)-3,5-difluorobenzamide], which Index is on record?
Answer: 0.053

Question: And the EC50 (Sus scrofa)?
Answer: 2.3 µM

Question: And the Emax (Sus scrofa)?
Answer: 75%

Question: How did the Index turn out when CC(C)(Cc1ccccc1)C(NC(=O)c1cccc(Cl)c1)Nc1c(Nc2cccnc2)c(=O)c1=O (stereo not shown) [Example 59, 3-Chloro-N-(1-{[3,4-dioxo-2-(3-pyridinylamino)-1-cyclobuten-1-yl]amino}-2,2-dimethyl-3-phenylpropyl)benzamide] was run?
Answer: 0.062

Question: And the EC50 (Sus scrofa)?
Answer: 1.7 µM

Question: And the Emax (Sus scrofa)?
Answer: 57%

Question: How did the Index turn out when Cc1cccc(C(=O)NC(Nc2c(Nc3cccnc3Cl)c(=O)c2=O)C(C)(C)Cc2ccccc2)c1 (stereo not shown) [Example 61, N-[1-({2[(2-Chloropyiridin-3-yl)amino]-3,4-dioxo-1-cyclobuten-1-yl}amino)-2,2-dimethyl-3-phenylpropyl]-3-methylbenzamide] was run?
Answer: 0.50

Question: What about the EC50 of the same molecule?
Answer: 0.47 µM

Question: What about the “Efficacy (%P1075)” value of the same molecule?
Answer: 64 %P1075

Question: CC(C)(C)CC(NC(=O)c1cccc(Cl)c1)Nc1c(Nc2cccnc2)c(=O)c1=O (stereo not shown) [Example 64, 3-Chloro-N-(1-{[3,4-dioxo-2-(3 pyridinylamino)-1-cyclobuten-1-yl]amino}-3,3-dimethylbutyl)benzamide] was tested. Which Index did it give?
Answer: 0.025

Question: And the EC50 (Sus scrofa)?
Answer: 4.2 µM

Question: And the Emax (Sus scrofa)?
Answer: 76%

Question: How did the Index turn out when CC(C)(C)C(NC(=O)c1cccc(Br)c1)Nc1c(Nc2cccnc2)c(=O)c1=O (stereo not shown) [Example 66, 3-Bromo-N-(1-{[3,4-dioxo-2-(3-pyridinylamino)-1-cyclobuten-1-yl]amino}-2,2-dimethylpropyl)benzamide] was run?
Answer: 0.040

Question: And the EC50 (Sus scrofa)?
Answer: 4.2 µM

Question: What about the Emax (Sus scrofa) of the same molecule?
Answer: 74%

Question: Which results are given for CC(C)(C)C(NC(=O)c1cccc(Br)c1)Nc1c(Nc2cccnc2Cl)c(=O)c1=O (stereo not shown) [Example 67, 3-Bromo-N-[1-({2-[(2-chloropyridin-3-yl)amino]-3,4-dioxo-1-cyclobuten-1-yl}amino)-2,2-dimethylpropyl]benzamide]?
Answer: Index: 0.029; EC50 (Sus scrofa): 2.5 µM; Emax (Sus scrofa): 72%

Question: What does the source list for CC(C)(C)C(NC(=O)c1cccc(F)c1)Nc1c(Nc2cccnc2Cl)c(=O)c1=O (stereo not shown) [Example 78]?
Answer: Index: 0.18; EC50: 0.84 µM; Efficacy (%P1075): 98 %P1075
